Reference: PubChem BioAssay (NCI)
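How tested: cells in 96-well plates exposed to compound for 48 hours at five concentrations. GI50: concentration for 50% inhibition of growth. The concentration for full growth arrest is given as TGI.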

Assays:
Assay in all cases: growth of human tumour cells (NCI), 48 h
[1] = tested on: U251 CNS
[2] = tested on: MDA-MB-435
[3] = tested on: SK-MEL-2 melanoma
[4] = tested on: M14 melanoma
[5] = tested on: MOLT-4 leukemia
[6] = tested on: T-47D breast
[7] = tested on: SK-MEL-5 melanoma
[8] = tested on: RXF 393 renal
[9] = tested on: PC-3 prostate
[10] = tested on: EKVX NSCLC

| Compound | GI50 [1] [µM] | TGI [1] [µM] | GI50 [2] [µM] | TGI [2] [µM] | GI50 [3] [µM] | TGI [3] [µM] | GI50 [4] [µM] | TGI [4] [µM] | GI50 [5] [µM] | TGI [5] [µM] | GI50 [6] [µM] | TGI [6] [µM] | GI50 [7] [µM] | TGI [7] [µM] | GI50 [8] [µM] | TGI [8] [µM] | GI50 [9] [µM] | TGI [9] [µM] | GI50 [10] [µM] | TGI [10] [µM] |
| --- | --- | --- | --- | --- | --- | --- | --- | --- | --- | --- | --- | --- | --- | --- | --- | --- | --- | --- | --- | --- |
| CC/C=C\C/C=C/C=C1/C(=O)C=C[C@@H]1C/C=C\CCCC(=O)OC | 2.35 | 6.83 | 2.05 | 5.08 | 3.35 | 12.5 | 3.22 | 11.8 | 1.36 | 11.2 | 3.9 | 24 | 1.99 | 4.05 | 1.94 | 3.84 | 2.44 | 7.1 | 3.89 | 20.1 |
| Cn1nnc2c(C(N)=O)ncn2c1=O | – | > 100 | – | > 100 | – | > 100 | – | > 100 | – | > 100 | – | > 100 | – | > 100 | – | > 100 | – | > 100 | – | > 100 |
| O=C(NN1C(=O)CSC1c1ccc(F)cc1)C(O)c1ccccc1 (stereo not given) | 97.4 | > 100 | > 100 | > 100 | > 100 | > 100 | > 100 | > 100 | > 100 | > 100 | 59.5 | > 100 | > 100 | > 100 | > 100 | > 100 | 76.8 | > 100 | > 100 | > 100 |
| O/N=C1\CCc2nonc2\C1=N/Nc1ccccc1 | – | > 100 | – | > 100 | – | > 100 | – | > 100 | – | > 100 | – | > 100 | – | > 100 | – | > 100 | – | > 100 | – | > 100 |
| NNc1c2ccccc2nc2ccccc12 | 4.89 | 40.6 | 5.08 | 23.4 | 12.5 | 29.2 | 6.11 | 21.8 | 0.897 | > 100 | 6.08 | 73.4 | 2.14 | 13.3 | 7.4 | 24.4 | 2.34 | 37.3 | 1.89 | 26.8 |
| CC(=O)OC(C)C(OC(C)=O)C(OC(C)=O)C(/C=C/C1CC=CC(=O)O1)OC(C)=O (stereo not given) | 30.7 | > 100 | 37.6 | > 100 | 35.9 | > 100 | 29.5 | > 100 | 29.2 | 97.5 | 27.3 | 80.1 | 26.3 | > 100 | 21.3 | 73.4 | 73.2 | > 100 | 39.6 | > 100 |
| Nc1n[nH]c(N)c1N=Nc1ccc(O)cc1 | 21.2 | 86.2 | 17.1 | 59.4 | 14.4 | 57 | 15.9 | > 100 | 13.5 | 91 | 14.2 | 87.5 | 13.9 | 30.9 | 18.4 | 43.9 | 20.3 | > 100 | 22 | 67.8 |
| Cc1ccc(N=C2SC(c3ccc(C)cc3)(c3ccc(C)cc3)c3ccccc32)cc1 | – | > 100 | – | > 100 | – | > 100 | – | > 100 | – | > 100 | – | > 100 | – | > 100 | – | > 100 | – | > 100 | – | > 100 |
